These are literature values, as cited in US12648566B2, “Solid bio-pesticidal composition comprising of elemental sulphur and azadirachtin” (SML LIMITED, priority 2021, dated 2026).

The conditions of the data set: buffer, pH 4.

As for `C/C=C(\C)C(=O)O[C@H]1C[C@@H](OC(C)=O)[C@@]2(C(=O)OC)CO[C@H]3[C@@H](O)[C@@](C)([C@]45O[C@@]4(C)[C@H]4C[C@@H]5O[C@@H]5OC=C[C@@]54O)[C@H]4[C@]1(CO[C@]4(O)C(=O)OC)[C@@H]32` [Azadirachtin], the laboratory half-life was 50 to 100 days.
